From US20130345159A1, “PURIFIED CARDIOGENIN ISOMER AND RELATED METHODS” (HUYA BIOSCIENCE INTERNATIONAL LLC, priority 2010, published 2013)
“Also recorded” adds a separate entry of the source.

Assays:
[1] = test system: mesenchymal stem cells (MSCs); experiment: cardiogenic morphological transition of cultured MSCs (phase contrast microscope); assay type: cell-based, rat; conditions: for MSCs undergoing narrowing and becoming more refractive (cardiogenic morphological transition), D3 / MSCs undergoing narrowing and becoming more refractive (cardiogenic morphological transition), D7: 10 μg/ml; for MSCs undergoing narrowing and becoming more refractive (cardiogenic morphological transition), D3: treated for 3 days; for MSCs undergoing narrowing and becoming more refractive (cardiogenic morphological transition), D7: treated for 7 days; for activity in inducing cardiogenic differentiation of MSCs (in words): summary statements
Protocol: FIG. 14 presents photomicrographs that illustrate the activity of Car, HUYA-1 and HUYA-2, each 10 μg/ml, in inducing the cardiogenic morphological transition of mesenchymal stem cells (MSCs). D0, cultures of MSCs were set up before any treatment. The morphology of the MSCs was characterized by flat, irregular, low refracted and well-spread shapes (circles). D3, sample of the cultured MSCs were treated for 3 days with compounds as respectively labeled. […] D7, the cultured MSCs samples were treated for 7 days with compounds as respectively labeled. More MSCs (˜48%) in Car- and HUYA-1-treated cultures underwent narrowing and became more refractive (circles).
FIG. 15 provides a comparison, via photomicrographs, of HUYA-3 (10 μg/ml) with HUYA-4 (10 μg/ml) in inducing cardiogenic morphological transition of MSCs. Ctrl denotes the MSCs treated with vehicle (10% DMSO in equivalent volume). D0, the MSCs cultures were set before any treatment. The morphology of the MSCs was characterized by flat, irregular, low refracted and well-spread shapes (circles). D3, sample of the cultured MSCs were treated for 3 days with compounds as respectively labeled. […] D7, the cultured MSCs samples were treated for 7 days with compounds as respectively labeled. A similar amount of the MSCs (˜22%) in HUYA-4-treated cultures became narrowing and more refractive (ovals).
Testing was performed according to the procedures described in the following: The tibias/femur bones of rats were removed and the BM was flushed out of the bones with alpha IMDM culture medium. The BM was mixed well and centrifuged at 1,500 rpm for 5 minutes. The cell pellet was suspended with 3 ml culture medium, and the forming cell suspension was carefully put on 4 ml Ficoll solution, to minimize disturbance, and then was centrifuged at […] for 30 minutes. The second layer was transferred into a tube and washed twice with PBS to remove Ficoll (1,200 rpm for 5 minutes). The resulting cell pellet was resuspended in IMDM culture medium containing 10% heat-inactivated FBS (GIBCO) and 1% penicillin/streptomycin antibiotic mixture, and this was used for the tests. Non-adherent cells were discarded after 24 hours culturing. The adherent cells were cultured by changing medium every 3 days. The cells became nearly confluent after 14 days culture. To activate the cardiogenic morphology transition, the MSCs were cultured for 7 days in the presence of the HUYA-1, HUYA-2, HUYA-3, HUYA-4 or Car (10 μg/ml IMDM culture medium), respectively. The treating period-dependent morphological transition was evaluated, on a time-lapse basis, with a phase contrast microscope.

[2] = test system: mesenchymal stem cells (MSCs); experiment: fluorescent immunocytochemistry for cardiogenic differentiation markers Mef2a and MHC beta in treated MSCs; assay type: cell-based, rat; conditions: 10 μg/ml; for treated cells with Mef2a-positive staining (D3): treated for 3 days; for treated cells with MHC beta-positive signals (D7): treated for 7 days
Protocol: FIG. 16 depicts immunofluorescence staining for expression of cardiogenic differentiation markers, Mef2a (fluorescence in D3) and beta, MHC beta (fluorescence in D7). D3 and D7, the cultured MSCs samples were treated with the compounds, as labeled, for 3 and 7 days, respectively. Neg is the negative control of MSCs culture, with no use of the first antibody specific to Mef2a or MHC beta, showing negative signals of Mef2a (D3) and MHC (D7) staining Ctrl represents the cultured MSCs treated with the equivalent volume of 10% DMSO, with almost no positive Mef2a (D3) and MHC beta (D7) signals observed.
FIG. 17 depicts immunofluorescence staining for expressions of early cardiogenic differentiation marker, Mef2a (fluorescence in D3) and cardiac specific myosin heavy chain beta, MHC (fluorescence in D7). D3 and D7, the cultured MSCs samples were treated with the compounds, as labeled, for 3 and 7 days, respectively.
The method for the fluorescent-immunostaining is summarize briefly: The cultured cells were fixed with 4% paraformaldehyde in PBS for 15 minutes and permeabilized with 0.5% Triton X-100 for 15 minutes. Dilution of antibodies was as follows: rabbit polyclonal antibodies specific to rat MEF2a (1:500) and mouse monoclonal antibodies specific to MHC (1:500) (both antibodies from Abcam®). Secondary antibodies were goat anti-mouse and rabbit anti-IgG antibodies conjugated with fluorophore (FITC 495/528 and Cy5 650/667, products of Abcam®), respectively. The nuclei were stained with DAPI. Examined by fluorescent microscopy were the cardiogenic differentiation-associated morphological transition and specific marker protein expression of the cultured MSCs.

GFP-MSCs = experiment: differentiation of GFP-MSCs into beating cardiac myocytes in co-culture with rat cardiac myocytes; assay type: cell-based, mice; conditions: 10 μg/ml
Description: FIG. 18 depicts HUYA-1-induced differentiation of GFP-MSCs into beating cardiac myocytes in co-culture system. This screenshot was taken from a video showing beating GFP-positive myocytes (enclosed areas) differentiated from the GFP-MSCs, which were co-cultured with rat cardiac myocytes and fibroblasts and then treated with HUYA-1. Since the culture contained non-GFP myocytes and fibroblasts and GFP-MSCs, any beating cells with GFP-positive signals that were identified must have differentiated from GFP-MSCs.
Bone marrow GFP-MSCs were isolated from the tibias/femur bones of GFP-transgenic mice. The GFP-MSCs were co-cultured with the cardiac myocytes isolated from neonatal SD rats in the presence of HUYA-1 (10 μg/ml IMDM culture medium) to mimic the cardiac micro-environment. The cultures were investigated daily, under a fluorescent microscope, to identify beating GFP-positive cells and to gauge the morphological transition of the cultured GFP-MSCs.

[3] = stress tests of the separated cardiogenin isomers; conditions: storage in MTBE/IPA=50:50 or as solids at 40° C. for 24 hours
Protocol: Stress tests were performed to determine whether the two cardiogenin isomers separated from each other are stable and not converting into each other. In particular, the two cardiogenin isomers were stressed by storage in MTBE/IPA=50:50 or as solids at 40° C. (the major isomer in solution and solid; the minor isomer only in solution) for 24 hours.

[4] = solubility in cell culture medium; assay type: physicochemical; conditions: compared with HUYA-1
Description: The DMSO concentration was increased from 5% to 10% to increase the solubility of HUYA-4.

[5] = listed as cardiogenin major isomer

Row | Compound | MSCs undergoing narrowing and becoming more refractive (cardiogenic morphological transition), D3 [1] | MSCs undergoing narrowing and becoming more refractive (cardiogenic morphological transition), D7 [1] | cultured MSCs induced into cardiogenic differentiation ([1]; cell culture, summary of FIGS. 14 and 15) | activity in inducing cardiogenic differentiation of MSCs (in words) [1] | activity in inducing cardiogenic differentiation of MSCs (in words) [1, 5] | activity in inducing cardiogenic differentiation of MSCs (in words) ([1]; listed as isolated cardiogenin major isomer) | treated cells with Mef2a-positive staining (D3) [2] | treated cells with MHC beta-positive signals (D7) [2] | differentiation of MSCs into beating cardiac myocytes (GFP-MSCs) | differentiation of MSCs into beating cardiac myocytes (GFP-MSCs; [5]) | activity in inducing cardiogenic differentiation of MSCs (in words) ([1]; listed as minor isomer) | stability under stress [3] | activity in inducing cardiogenic differentiation of MSCs (in words) ([1]; listed as aglycone) | solubility in cell culture medium [4]
1 | C[C@@H]1CC[C@]2(C(=O)OC3OC(CO)C(O)C(O)C3O)CC[C@]3(C)C(=CCC4[C@@]5(C)C[C@@H](O)[C@H](O)[C@@](C)(CO)C5CC[C@]43C)C2[C@]1(C)O (stereo partly shown) [HUYA-1, cardiogenin] | ~31% | ~48% | more than 20% | most active compound | substantially enhanced differentiation into cardiomyocytes; also recorded: active | biologically active | approximately 15% | 20% | induced cardiogenic differentiation of the GFP-MSCs to form beating cardiac myocytes; also recorded: can enhance the cardiogenic differentiation of MSCs into beating cardiac myocytes | beating cardiomyocytes differentiate from MSCs |  |  |  | 
2 | cardiogenin [HUYA-2] | did not show clear morphological changes | no significant morphological change |  | essentially inactive |  |  | almost no positive signals | ~3% |  |  | inactive | The same picture was obtained |  | 
3 | C[C@@H]1CC[C@]2(C(=O)O)CC[C@]3(C)C(=CCC4[C@@]5(C)C[C@@H](O)[C@H](O)[C@@](C)(CO)C5CC[C@]43C)C2[C@]1(C)O (stereo partly shown) [HUYA-4] | ~20% | ~22% |  | induced MSCs into cardiogenic differentiation |  |  | ~6% | ~8% | beating cardiomyocytes differentiate from MSCs |  |  |  | substantially enhanced differentiation into cardiomyocytes | lower solubility
